Earlier results on one substance are cited in publication PMC4310643 (ACS Nano, 2015).

The test system of this data set is ABIR.

On to “Arg-Gly-Asp-DPhe-Lys (head to tail) [cRGDfK, cyclic peptide, arginine-glycine-aspartic acid-(D)phenylalanine-lysine]”, for which the “binding affinity to ABIR” value is “high binding affinity to ABIR”.
